Counter-ions that a name gives are not always drawn. Like-named read-outs stand apart in the source and are kept apart here. Where only a bound is given, the exact number is not on record here.

In series [1] the target is T1, human Dopamine D2L receptor (Homo sapiens, UniProt P14416).
T1 construct: expressed in transfected cells; host or cells: CHO cells (membranes)
The series is described as follows: In vitro binding affinity for human D2L receptor ([3H]spiperone). Conditions: membranes of human D2L receptor-transfected CHO cells, read-out: D2L binding pIC50 (converted). The text has this:
In order to find antipsychotic compounds active against positive and negative symptoms and cognitive impairment, and having an improved safety profile (low EPS incidence and no metabolic disorders), we have screened for compounds selectively interacting with the dopamine D2 receptor and dissociating fast from this receptor, and further having affinity for the dopamine D3 receptor as well as the serotonin 5-HT-6 receptor. Compounds were first screened for their D2 affinity in a binding assay using [^3H]spiperone and human D2L receptor cell membranes.
Pharmacology In Vitro Binding Affinity for Human D2L Receptor
Frozen membranes of human Dopamine D2L receptor-transfected CHO cells were thawed, briefly homogenised using an Ultra-Turrax T25 homogeniser and diluted in Tris-HCl assay buffer containing NaCl, CaCl2, MgCl2, KCl (50, 120, 2, 1, and 5 mM respectively, adjusted to pH 7.7 with HCl) to an appropriate protein concentration optimised for specific and non-specific binding. Radioligand [^3H]Spiperone (NEN, specific activity ˜70 Ci/mmol) was diluted in assay buffer at a concentration of 2 nmol/L. Prepared radioligand (50 μl), along with 50 μl of either the 10% DMSO control, Butaclamol (10^−6 mol/1 final concentration), or compound of interest, was then incubated (30 min, 37° C.) with 400 μl of the prepared membrane solution. Membrane-bound activity was filtered through a Packard Filtermate harvester onto GF/B Unifilterplates and washed with ice-cold Tris-HCl buffer (50 mM; pH 7.7; 6×0.5 ml). Filters were allowed to dry before adding scintillation fluid and counting in a Topcount scintillation counter. Percentage specific bound and competition binding curves were calculated using S-Plus software (Insightful).

Series [2] addresses T2, human Dopamine D3 receptor (Homo sapiens, UniProt P35462).
T2 construct: expressed in transfected cells; host or cells: CHO cells (membranes)
The series is described as follows: In vitro binding affinity for human D3 receptor ([125I]iodosulpride). On the procedure: In Vitro Binding Affinity for Human D3 Receptor
Frozen membranes of human Dopamine D3 receptor-transfected CHO cells were thawed, briefly homogenized using an Ultra-Turrax T25 homogeniser and diluted in 50 mM Tris-HCl assay buffer containing 120 mM NaCl, 2 mM CaCl2, 1 mM MgCl2, 5 mM KCl and 0.1% BSA (adjusted to pH 7.4 with HCl) to an appropriate protein concentration optimized for specific and non-specific binding. Radioligand [^125I]Iodosulpride (Amersham, specific activity ˜2000 Ci/mmol) was diluted in assay buffer at a concentration of 2 nM. Prepared radioligand (20 μl), along with 40 μl of either the 10% DMSO control, Risperidone (10^−6M final concentration), or compound of interest, was then incubated with 70 μl of the prepared membrane solution and 70 μl of WGA coated PVT beads (0.25 mg/well final concentration). After shaking for 24 hours at RT plates were counted in a Topcount™ scintillation counter. Percentage specific binding and competition binding curves were calculated using S-Plus software (Insightful).

Series [3] has as its target T3, human Serotonin 5HT6 receptor (Homo sapiens, UniProt P50406).
T3 construct: expressed in transfected cells; host or cells: HEK cells (membranes)
The series is described as follows: In vitro binding affinity for human 5HT6 receptor ([3H]lysergic acid diethylamide). The following applies: [3H]LSD, membranes of human 5HT6 receptor-transfected HEK cells; for IC50: read-out: 5-HT6 binding pIC50 (converted). On the procedure: In Vitro Binding Affinity for Human 5HT6 Receptor
Frozen membranes of human Serotonin 5HT6 receptor-transfected HEK cells were thawed, briefly homogenized using an Ultra-Turrax T25 homogeniser and diluted in 50 mM Tris-HCl assay buffer containing 10 mM MgCl2, 1 mM EDTA and 10 μM Pargyline (adjusted to pH 7.4 with HCl) to an appropriate protein concentration optimized for specific and non-specific binding. Radioligand [^3H]Lysergic acid diethylamide (Perkin Elmer, specific activity ˜80 Ci/mmol) was diluted in assay buffer at a concentration of 20 nM. Radioligand (20 μl), along with 40 μl of either the 10% DMSO control, Methiothepine (10^−5 M final concentration), or compound of interest, was then incubated with 70 μl of the prepared membrane solution and 70 μl of WGA coated PVT beads (0.25 mg/well final concentration). After shaking for 24 hours at RT plates were counted in a Topcount™ scintillation counter. Percentage specific binding and competition binding curves were calculated using S-Plus software (Insightful).

Setting [4] is: [125I]iodosulpride, membranes of human D3 receptor-transfected CHO cells, read-out: D3 binding pIC50 (converted).

T2 sequence (P35462 whole entry): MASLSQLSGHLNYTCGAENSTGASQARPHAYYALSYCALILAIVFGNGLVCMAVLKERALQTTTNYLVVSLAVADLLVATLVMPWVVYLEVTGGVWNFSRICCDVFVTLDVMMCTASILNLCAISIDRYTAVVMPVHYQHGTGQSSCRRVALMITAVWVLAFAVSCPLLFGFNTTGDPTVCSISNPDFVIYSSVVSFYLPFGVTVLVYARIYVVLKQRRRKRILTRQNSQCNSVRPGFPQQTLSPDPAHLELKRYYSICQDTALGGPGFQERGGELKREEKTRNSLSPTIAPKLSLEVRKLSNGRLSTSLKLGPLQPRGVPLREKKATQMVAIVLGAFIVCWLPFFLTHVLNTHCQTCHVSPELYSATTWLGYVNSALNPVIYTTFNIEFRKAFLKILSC
T1 sequence (P14416 whole entry): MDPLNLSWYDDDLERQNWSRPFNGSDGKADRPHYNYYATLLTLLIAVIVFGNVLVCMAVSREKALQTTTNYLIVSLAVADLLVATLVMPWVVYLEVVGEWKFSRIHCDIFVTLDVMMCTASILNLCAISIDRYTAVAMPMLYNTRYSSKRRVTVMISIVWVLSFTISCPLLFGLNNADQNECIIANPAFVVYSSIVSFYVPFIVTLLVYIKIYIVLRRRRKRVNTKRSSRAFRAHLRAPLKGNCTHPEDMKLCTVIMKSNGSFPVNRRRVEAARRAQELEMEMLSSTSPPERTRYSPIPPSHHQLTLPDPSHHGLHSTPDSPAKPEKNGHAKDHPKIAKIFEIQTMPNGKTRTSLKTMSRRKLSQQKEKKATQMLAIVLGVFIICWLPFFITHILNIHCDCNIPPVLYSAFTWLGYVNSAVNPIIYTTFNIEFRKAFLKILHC
T3 sequence (P50406 whole entry): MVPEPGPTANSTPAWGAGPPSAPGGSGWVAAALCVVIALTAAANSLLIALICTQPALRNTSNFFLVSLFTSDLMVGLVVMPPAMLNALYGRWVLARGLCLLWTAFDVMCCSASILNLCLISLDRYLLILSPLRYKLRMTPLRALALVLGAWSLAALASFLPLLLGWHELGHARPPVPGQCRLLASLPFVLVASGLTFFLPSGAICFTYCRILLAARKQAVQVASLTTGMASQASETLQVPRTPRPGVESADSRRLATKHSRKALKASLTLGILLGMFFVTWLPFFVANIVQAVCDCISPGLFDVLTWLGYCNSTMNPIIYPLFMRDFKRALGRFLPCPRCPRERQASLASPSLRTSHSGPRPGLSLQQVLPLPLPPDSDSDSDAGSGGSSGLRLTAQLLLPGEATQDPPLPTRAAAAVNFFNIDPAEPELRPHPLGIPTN

For `CCN1CCN(c2cc(-c3ccccc3)c(C(F)(F)F)nn2)CC1` (as salt: hydrochloric acid salt) [Example E2, 6-(4-Ethylpiperazin-1-yl)-4-phenyl-3-trifluoromethyl-pyridazine], the melting point (commonly the temperature of the solid-liquid transition) turned out to be 281.9 °C.

On to `C[C@@H]1CN(c2cc(-c3ccccc3)c(C(F)(F)F)nn2)C[C@H](C)N1` (as salt: hydrochloric acid salt) [Example E4, cis-6-(3,5-Dimethylpiperazin-1-yl)-4-phenyl-3-trifluoromethyl-pyridazine], for which the melting point was 285.4 °C.

Consider `FC(F)(F)c1nnc(N2CCNCC2)cc1-c1cccc2ccccc12` (as salt: hydrochloric acid salt) [Example E18], for which the melting point was 281.8 °C.

In turn, `CN1CCN(c2cc(-c3ccccc3)c(C(F)(F)F)nn2)CC1` (as salt: hydrochloric acid salt) [Example E22] had a melting point of 163.3 °C.

As to `COc1ccccc1-c1cc(N2CCNCC2)nnc1C(F)(F)F` (as salt: hydrochloric acid salt) [Example E31], the melting point worked out at 287.7 °C.

`CN(C)c1ccc(-c2cc(N3CCNCC3)nnc2C(F)(F)F)cc1` (as salt: hydrochloric acid salt) [Example E32] yielded a melting point of 198.7 °C.

The compound `FC(F)(F)c1nnc(N2CCNCC2)cc1-c1cc(Cl)ccc1Cl` (as salt: hydrochloric acid salt) [Example E34] gave a melting point of 286.3 °C.

For `FC(F)(F)c1nnc(N2CCN3CCCC3C2)cc1-c1ccccc1` (racemic) (as salt: hydrochloric acid salt) [Example E5, 2-(5-Phenyl-6-trifluoromethyl-pyridazin-3-yl)-octahydro-pyrrolo[1,2-a]pyrazine], the melting point was determined as 104.2 °C.

The compound `CC1CN(c2cc(-c3ccccc3)c(C(F)(F)F)nn2)C(C)CN1` (racemic) (as salt: hydrochloric acid salt) [Example E26] yielded a melting point of 273 °C.

As for `CC1CN(c2cc(-c3ccccc3)c(C(F)(F)F)nn2)C(C)CN1` (racemic) [Example E26], the IC50 in series [1] was 6030 nM; in series [2] (setting [4]), > 10000 nM; in series [3], 2290 nM.

The compound `Fc1cc(F)cc(CN2CCN(c3cc(-c4ccccc4)c(C(F)(F)F)nn3)CC2)c1` [Example E3, 6-[4-(3,5-Difluorobenzyl)piperazin-1-yl]-4-phenyl-3-trifluoromethyl-pyridazine] displayed a melting point of 138.8 °C. Also, the IC50 in series [1] is 617 nM. Besides, the IC50 in series [2] (setting [4]) was > 10000 nM. The “5-HT6 binding pIC50” value in series [3] was >5.

As to `C[C@@H]1CN(c2cc(-c3ccccc3)c(C(F)(F)F)nn2)C[C@H](C)N1` [Example E4, cis-6-(3,5-Dimethylpiperazin-1-yl)-4-phenyl-3-trifluoromethyl-pyridazine], the IC50 in series [1] is 3800 nM; in series [2] (setting [4]), > 10000 nM; in series [3], 8510 nM.

The compound `Cc1ccc(-c2cc(N3CCNCC3)nnc2C(F)(F)F)cc1` [Example E11] had a melting point of 110.6 °C. Further, the IC50 in series [1] was 1260 nM. In addition, the IC50 in series [2] (setting [4]) is 89.1 nM. Further, in series [3], the IC50 was 741 nM.

With `FC(F)(F)c1nnc(N2CCNCC2)cc1-c1ccc(Cl)cc1` [Example E12], the melting point is 198.2 °C. Also, in series [1], the IC50 is 3630 nM. Besides, the IC50 in series [2] (setting [4]) was 347 nM. Also, the IC50 in series [3] is 1740 nM.

Regarding `Oc1cccc(-c2cc(N3CCNCC3)nnc2C(F)(F)F)c1` [Example E13], the IC50 in series [1] was 5130 nM; in series [2] (setting [4]) it was > 10000 nM; in series [3], 3550 nM.

As for `FC(F)(F)c1nnc(N2CCNCC2)cc1-c1ccc(Br)cc1` [Example E14], the melting point is 138.2 °C. In addition, the IC50 in series [1] is 4070 nM. In addition, the IC50 in series [2] (setting [4]) is > 10000 nM. The IC50 in series [3] is 4270 nM.

`Fc1cccc(-c2cc(N3CCNCC3)nnc2C(F)(F)F)c1` [Example E15] displayed a melting point of 144.7 °C. Moreover, in series [1], the IC50 was 5750 nM. For the same compound, in series [2] (setting [4]), the IC50 was 631 nM. The IC50 in series [3] was 1550 nM.

On to `FC(F)(F)c1nnc(N2CCNCC2)cc1-c1cccc(Cl)c1` [Example E16], for which the melting point came to 178.8 °C. In series [1], the IC50 is 4790 nM. Moreover, the IC50 in series [2] (setting [4]) is 550 nM. In addition, the IC50 in series [3] was 245 nM.

The compound `FC(F)(F)c1nnc(N2CCNCC2)cc1-c1ccc2ccccc2c1` [Example E17] displayed a melting point of 128.1 °C. In addition, the IC50 in series [1] was 7940 nM. In series [2] (setting [4]), the IC50 is 398 nM. Besides, in series [3], the IC50 is 437 nM.

On to `FC(F)(F)c1nnc(N2CCNCC2)cc1-c1cccc2ccccc12` [Example E18], for which the IC50 in series [1] was 7760 nM; in series [2] (setting [4]), > 10000 nM; in series [3], 158 nM.

In the case of `FC(F)(F)c1nnc(N2CCNCC2)cc1-c1cccs1` [Example E19], the melting point is 112.6 °C. Moreover, the IC50 in series [1] is 1380 nM. Also, the IC50 in series [2] (setting [4]) is 148 nM. Also, the IC50 in series [3] was 1950 nM.

Consider `CN1CCN(c2cc(-c3ccccc3)c(C(F)(F)F)nn2)CC1` [Example E22], for which the IC50 in series [1] was 776 nM; in series [2] (setting [4]), 38.9 nM; in series [3] it was 1260 nM.

With `FC(F)(F)c1nnc(N2CCNCC2)cc1-c1ccc(Cl)s1` [Example E27, 4-(5-Chloro-thiophen-2-yl)-6-piperazin-1-yl-3-trifluoromethyl-pyridazine], the figures for the IC50 in series [1], in series [2] (setting [4]) and in series [3] were 1510 nM, > 10000 nM and 794 nM, respectively.

For `Cc1cc(F)ccc1-c1cc(N2CCNCC2)nnc1C(F)(F)F` [Example E28], the values for the IC50 in series [1], in series [2] (setting [4]) and in series [3] were 372 nM, 47.9 nM and 245 nM, respectively.

In the case of `COc1ccccc1-c1cc(N2CCNCC2)nnc1C(F)(F)F` [Example E31], the IC50 was > 10000 nM in series [1], 479 nM in series [2] (setting [4]) and 1120 nM in series [3].

`CN(C)c1ccc(-c2cc(N3CCNCC3)nnc2C(F)(F)F)cc1` [Example E32]: the figures for the IC50 in series [1], in series [2] (setting [4]) and in series [3] were > 10000 nM, 1290 nM and 977 nM, respectively.

With `Fc1ccccc1-c1cc(N2CCNCC2)nnc1C(F)(F)F` [Example E33], the IC50 in series [1] was 1230 nM; in series [2], 52.5 nM; in series [3], 1290 nM.

Take `FC(F)(F)c1nnc(N2CCNCC2)cc1-c1cc(Cl)ccc1Cl` [Example E34]: the IC50 is 4680 nM in series [1], 87.1 nM in series [2] (setting [4]) and 794 nM in series [3].

Take `FC(F)(F)c1nnc(N2CCN(Cc3ccccc3)CC2)cc1-c1ccccc1` [Example E36]: the IC50 in series [1] is 33.1 nM; in series [2] (setting [4]), > 10000 nM; in series [3], 6610 nM.

Take `FC(F)(F)c1nnc(N2CCN(Cc3cccnc3)CC2)cc1-c1ccccc1` [Example E37]: the values for the IC50 in series [1], in series [2] (setting [4]) and in series [3] were 562 nM, 178 nM and > 10000 nM, respectively.

As for `FC(F)(F)c1nnc(N2CCN(Cc3ccccn3)CC2)cc1-c1ccccc1` [Example E38], the IC50 in series [1] was 282 nM; in series [2] (setting [4]), 87.1 nM; in series [3] it was > 10000 nM.

On to `FC(F)(F)c1nnc(N2CCN(CC3CC3)CC2)cc1-c1ccccc1` [Example E39], for which the IC50 is 60.3 nM in series [1], > 10000 nM in series [2] (setting [4]) and 3890 nM in series [3].
